Measurements taken from ChEMBL document CHEMBL1134476, “Pharmacological and behavioral analysis of the effects of some bivalent ligand-based monoamine reuptake inhibitors” (J Med Chem, 2001).
pKi: −log10 of the molar value.

Tests used:
Assay type in all cases: subcellular, Brain
[1] = biological target: T1, Sodium-dependent dopamine transporter (Rattus norvegicus, UniProt P23977); experiment: Displacement of [3H]mazindol binding to dopamine transporter (DAT) in rat synaptosomes
[2] = biological target: T1, Sodium-dependent dopamine transporter; experiment: Inhibition of high affinity DA uptake into rat synaptosomes using [3H]DA
[3] = biological target: T2, Norepinephrine transporter (Rattus norvegicus, UniProt Q9WTR4); experiment: Ability to inhibit high affinity uptake of norepinephrine transporter into the nerve endings of rat synaptosomes using [3H]NE as a radioligand
[4] = biological target: Sodium-dependent serotonin transporter (Rattus norvegicus, UniProt P31652); experiment: Inhibition of high affinity serotonin uptake into rat synaptosomes using [3H]5-HT
[5] = biological target: T2, Norepinephrine transporter; experiment: Ability to inhibit high affinity uptake of norepinephrine transporter into the nerve endings of rat synaptosomes using [3H]NE radioligand
[6] = biological target: T1, Sodium-dependent dopamine transporter; experiment: Ability to inhibit high affinity uptake of DA into the nerve endings of rat synaptosomes using [3H]DA as a radioligand

T1 sequence (P23977 whole entry): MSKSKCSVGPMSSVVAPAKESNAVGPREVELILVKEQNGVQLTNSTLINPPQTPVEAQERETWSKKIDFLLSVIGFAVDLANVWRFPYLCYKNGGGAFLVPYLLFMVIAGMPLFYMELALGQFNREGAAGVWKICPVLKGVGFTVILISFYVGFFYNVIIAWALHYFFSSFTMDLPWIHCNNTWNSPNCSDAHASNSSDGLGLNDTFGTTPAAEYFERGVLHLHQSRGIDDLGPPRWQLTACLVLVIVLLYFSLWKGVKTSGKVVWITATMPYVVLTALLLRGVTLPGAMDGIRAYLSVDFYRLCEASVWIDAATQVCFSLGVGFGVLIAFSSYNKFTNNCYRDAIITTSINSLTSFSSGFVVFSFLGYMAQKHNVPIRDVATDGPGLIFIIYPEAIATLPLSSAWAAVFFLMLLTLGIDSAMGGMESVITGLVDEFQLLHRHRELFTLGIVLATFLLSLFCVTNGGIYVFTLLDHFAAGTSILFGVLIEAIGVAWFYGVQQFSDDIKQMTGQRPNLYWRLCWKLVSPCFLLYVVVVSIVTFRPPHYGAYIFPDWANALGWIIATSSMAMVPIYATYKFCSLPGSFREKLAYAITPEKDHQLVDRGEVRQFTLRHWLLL
Sequence of Sodium-dependent serotonin transporter (P31652 whole entry): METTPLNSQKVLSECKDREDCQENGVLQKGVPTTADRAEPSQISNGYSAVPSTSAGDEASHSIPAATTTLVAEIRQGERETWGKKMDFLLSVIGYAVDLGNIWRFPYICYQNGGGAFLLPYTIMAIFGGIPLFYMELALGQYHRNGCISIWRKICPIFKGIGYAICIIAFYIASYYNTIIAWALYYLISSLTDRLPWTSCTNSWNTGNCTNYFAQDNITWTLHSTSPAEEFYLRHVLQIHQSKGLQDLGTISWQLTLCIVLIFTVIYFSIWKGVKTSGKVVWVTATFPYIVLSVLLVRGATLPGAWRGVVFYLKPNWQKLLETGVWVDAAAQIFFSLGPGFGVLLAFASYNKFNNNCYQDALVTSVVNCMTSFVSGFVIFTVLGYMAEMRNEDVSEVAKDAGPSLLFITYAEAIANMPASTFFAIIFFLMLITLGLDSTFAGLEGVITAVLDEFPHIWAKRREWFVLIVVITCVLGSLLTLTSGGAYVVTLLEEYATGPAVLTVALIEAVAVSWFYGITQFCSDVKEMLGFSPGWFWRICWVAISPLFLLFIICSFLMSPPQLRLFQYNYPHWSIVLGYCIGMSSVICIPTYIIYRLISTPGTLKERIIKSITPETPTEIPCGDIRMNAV
T2 sequence (Q9WTR4 whole entry): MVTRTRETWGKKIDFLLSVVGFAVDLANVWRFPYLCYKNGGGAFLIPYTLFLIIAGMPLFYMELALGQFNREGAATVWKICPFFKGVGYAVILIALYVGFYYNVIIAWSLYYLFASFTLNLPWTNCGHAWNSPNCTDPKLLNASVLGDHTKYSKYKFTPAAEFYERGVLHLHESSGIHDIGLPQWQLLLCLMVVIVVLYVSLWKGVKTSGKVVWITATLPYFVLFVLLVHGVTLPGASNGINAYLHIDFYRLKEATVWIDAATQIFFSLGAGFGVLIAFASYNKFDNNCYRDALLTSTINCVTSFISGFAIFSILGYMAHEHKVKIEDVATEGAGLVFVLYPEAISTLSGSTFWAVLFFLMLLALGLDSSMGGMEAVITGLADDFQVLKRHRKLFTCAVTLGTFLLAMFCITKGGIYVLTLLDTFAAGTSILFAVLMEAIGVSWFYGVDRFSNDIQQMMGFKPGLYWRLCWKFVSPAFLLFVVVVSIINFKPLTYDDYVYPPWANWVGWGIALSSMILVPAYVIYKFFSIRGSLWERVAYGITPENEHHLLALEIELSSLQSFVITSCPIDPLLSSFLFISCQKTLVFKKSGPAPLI

`CNC(=O)[C@H]1CN(C)CC[C@@H]1c1ccc(Cl)cc1` showed a pKi [1] of under 4.92, a pKi [2] of under 5.05 and a pKi [3] of 5.36. For the same molecule, the pKi [4] was under 4.28.
`CN1CC[C@@H](c2ccc(Cl)cc2)[C@H](C(=O)NCCCNC(=O)[C@@H]2CN(C)CC[C@H]2c2ccc(Cl)cc2)C1` gave a pKi [1] of under 5.19, a pKi [2] of 5.29 and a pKi [3] of 6.43. It also gave a pKi [4] of 6.47.
Work on `COC(=O)[C@H]1CN(C)CC[C@@H]1c1ccc(Cl)cc1` yielded a pKi [1] of 6.61, a pKi [2] of 6.64 and a pKi [5] of 7.05. For the same molecule, the pKi [4] was 5.23.
`CN1CC[C@H](c2ccc(Cl)cc2)[C@@H](C(=O)NCCCNC(=O)[C@H]2CN(C)CC[C@@H]2c2ccc(Cl)cc2)C1` gave a pKi [1] of 8.08, a pKi [2] of 7.85 and a pKi [3] of 6.84. It also gave a pKi [4] of 6.25.
Work on `CN1CC[C@H](c2ccc(Cl)cc2)[C@@H](C(=O)NCCCCCCCCNC(=O)[C@H]2CN(C)CC[C@@H]2c2ccc(Cl)cc2)C1` yielded a pKi [1] of 6.53, a pKi [2] of 6.47 and a pKi [3] of 5.70. It also gave a pKi [4] of 7.25.
Molecule `CN1CC[C@H](c2ccc(Cl)cc2)[C@@H](C(=O)NCCCCCNC(=O)c2ccc(Cl)cc2)C1` has a pKi [1] of 6.71, a pKi [2] of 6.59 and a pKi [3] of 6.26. It also gave a pKi [4] of 6.80.
`COC(=O)[C@@H]1CN(C)CC[C@H]1c1ccc(Cl)cc1` gave a pKi [1] of 5.75, a pKi [2] of 5.54 and a pKi [5] of 6.62. For the same molecule, the pKi [4] was 5.44.
In the case of `CN1CC[C@H](c2ccc(Cl)cc2)[C@@H](C(=O)NCCCCCNC(=O)c2ccccc2)C1`, the pKi [1] was 6.39, the pKi [2] was 6.33 and the pKi [3] was 5.92. For the same molecule, the pKi [4] was 6.31.
Molecule `CN1CC[C@H](c2ccc(Cl)cc2)[C@@H](C(=O)NCCCCCNC(=O)[C@H]2CN(C)CC[C@@H]2c2ccc(Cl)cc2)C1` has a pKi [1] of 6.99, a pKi [2] of 7.41 and a pKi [3] of 6.80. It also gave a pKi [4] of 8.15.
Molecule `CN1CC[C@H](c2ccc(Cl)cc2)[C@@H](C(=O)NCCCCCNC(=O)/C=C/c2ccc(Cl)cc2)C1` has a pKi [1] of 6.61, a pKi [2] of 6.60 and a pKi [3] of 5.97. For the same molecule, the pKi [4] was 6.88.
In the case of `CN1CC[C@@H](c2ccc(Cl)cc2)[C@H](C(=O)NCCCCCNC(=O)[C@@H]2CN(C)CC[C@H]2c2ccc(Cl)cc2)C1`, the pKi [1] was 5.84 and the pKi [3] was 6.41.
`CN1CC[C@H](c2ccc(Cl)cc2)[C@@H](C(=O)OCCCCCOC(=O)[C@H]2CN(C)CC[C@@H]2c2ccc(Cl)cc2)C1` showed a pKi [1] of 7.19, a pKi [2] of 7.25 and a pKi [3] of 6.74. It also gave a pKi [4] of 7.60.
`CN1CC[C@H](c2ccc(Cl)cc2)[C@@H](C(=O)NCCCCCCNC(=O)[C@H]2CN(C)CC[C@@H]2c2ccc(Cl)cc2)C1` was tested, and the pKi [1] was 6.40, the pKi [2] was 7.12 and the pKi [3] was 6.24. For the same molecule, the pKi [4] was 7.22.
For `CN1CC[C@@H](c2ccc(Cl)cc2)[C@H](C(=O)NCCCCCCCCNC(=O)[C@@H]2CN(C)CC[C@H]2c2ccc(Cl)cc2)C1`, the pKi [6] was 5.50, the pKi [3] was 5.98 and the pKi [4] was 8.68.
`CN1CC[C@H](c2ccc(Cl)cc2)[C@@H](C(=O)NCCCCCCCNC(=O)[C@H]2CN(C)CC[C@@H]2c2ccc(Cl)cc2)C1` gave a pKi [1] of 6.46, a pKi [2] of 6.72 and a pKi [3] of 6.40. For the same molecule, the pKi [4] was 7.40.
Molecule `CN1CC[C@H](c2ccc(Cl)cc2)[C@@H](C(=O)NCCCCNC(=O)[C@H]2CN(C)CC[C@@H]2c2ccc(Cl)cc2)C1` has a pKi [1] of 7.09, a pKi [2] of 7.48 and a pKi [3] of 6.98. It also gave a pKi [4] of 6.27.
`CN1CC[C@H](c2ccc(Cl)cc2)[C@@H](C(=O)OCCCOC(=O)[C@H]2CN(C)CC[C@@H]2c2ccc(Cl)cc2)C1` showed a pKi [1] of 7.17, a pKi [2] of 6.97 and a pKi [3] of 6.47. It also gave a pKi [4] of 6.14.
For `CNC(=O)[C@@H]1CN(C)CC[C@H]1c1ccc(Cl)cc1`, the pKi [1] was under 4.41, the pKi [2] was under 4.15 and the pKi [5] was 5.51. It also gave a pKi [4] of under 5.00.
`CN1CC[C@H](c2ccc(Cl)cc2)[C@@H](C(=O)OCCCCCCCCOC(=O)[C@H]2CN(C)CC[C@@H]2c2ccc(Cl)cc2)C1` was tested, and the pKi [1] was 6.04, the pKi [2] was 6.85 and the pKi [3] was 6.18. For the same molecule, the pKi [4] was 6.76.
